Columns and labels:
HIV integrase = HIV integrase (Human immunodeficiency virus type 1 group M subtype B, UniProt P04585); experiment: integrase strand transfer assay (STA); format: biochemical; conditions: integrase strand transfer; read-out: IC50 in the STA assay
HXB2 virus = experiment: microbe, parasite or virus in culture; format: cell-based, HIV; conditions: Human immunodeficiency virus 1, HXB2, HeLaP4-2, read-out: antiviral IC50 (SCIA-B)
Protocol: An assay for measuring the inhibition of acute HIV infection with HeLa P4-2 cells in a single cycle infectivity assay (SCIA-A) was conducted in accordance with Joyce, J. G., et al., J. Biol. Chem., 2002, 277, 45811, Hazuda, D. J. et al., Science, 2000, 287, 646, and Kimpton, J. et al, J. Virol. 1992, 66, 2232. Infectious virus was produced by transfecting 293T cells with HIV proviral DNA in which the integrase gene was derived from a IIIB isolate and the remainder of the HIV genome was derived from the NL4-3 isolate.
This assay B for measuring the inhibition of acute HIV infection with HeLa P4-2 cells in a single cycle infectivity assay (SCIA-B) is essentially the same as Assay A described above, except that HXB2 virus is employed instead of the IIIb isolate.

Row | SMILES | IC50 (HIV integrase) [µM] | IC50 (HXB2 virus) [µM]
1 | COC(=O)c1ccc2c(c1)CN(c1cc(=O)n(O)c3ncccc13)CC2 [Example 122, 4-[7-(methoxycarbonyl)-3,4-dihydroisoquinolin-2(1H)-yl]-1-hydroxy-1,8-naphthyridin-2(1H)-one] | < 50 | < 100
2 | C[C@@H](Nc1cc(=O)n(O)c2ncccc12)c1ccccc1 [Example 125, 1-hydroxy-4-{[(1R)-1-phenylethyl]amino}-1,8-naphthyridin-2(1H)-one] | < 50 | < 100
3 | COC(=O)CCc1cccc(-c2cccc(-c3cc(=O)n(O)c4ncccc34)c2)c1 [Example 187, methyl-3-[3′-(1-hydroxy-2-oxo-1,2-dihydro-1,8-naphthyridin-4-yl)biphenyl-3-yl]-propanoate] | < 50 | < 100
4 | O=c1c(-c2ccccc2)c(O)c2cc(S(=O)(=O)NCc3ccccc3)cnc2n1O [Example 96, N-benzyl-5,8-dihydroxy-7-oxo-6-phenyl-7,8-dihydro-1,8-naphthyridine-3-sulfonamide] | < 50 | < 100
5 | NCc1cccc(CNc2cc(=O)n(O)c3ncccc23)c1 [Example 159, 4-{[3-(aminomethyl)benzyl]amino}-1-hydroxy-1,8-naphthyridin-2(1H-one)] | < 50 | < 100
6 | CN(C)CCCN1CCN(Cc2cccc(-c3cc(=O)n(O)c4ncccc34)c2)CC1 [Example 212, 4-[3-({4-[3-(dimethylamino)propyl]-1-piperazinyl}methyl)phenyl]-1-hydroxy-1,8-naphthyridin-2(1H-one)] | < 50 | < 100
7 | CN1C(=O)c2c(c3cccnc3n(O)c2=O)NC1c1cccc(Oc2ccccc2)c1 (centres unmarked) [Example 218, 6-Hydroxy-3-methyl-2-(3-phenoxyphenyl)-2,3-dihydropyrimido[5,4-c]-1,8-naphthyridine-4,5(1H, 6H)dione] | < 50 | < 100
8 | CN(C(=O)c1c(O)c2cccnc2n(O)c1=O)C1CCNC1 (centres unmarked) [Example 215, 1,4-Dihydroxy-N-methyl-2-oxo-N-pyrrolidin-3-yl-1,2-dihydro-1,8-naphthyridine-3-carboxamide] | < 50 | < 100
9 | NCc1ccc(-c2cccc(Cc3cc(=O)n(O)c4ncccc34)c2)cc1 [Example 232, 4-{[4′-(aminomethyl)biphenyl-3-yl]methyl}-1-hydroxy-1,8-naphthyridin-2(1H)-one] | < 50 | < 100
10 | O=c1cc(NC(CN2CCOCC2)c2ccccc2)c2cccnc2n1O (centres unmarked) [Example 107, 1-Hydroxy-4-[(2-morpholin-4-yl-1-phenylethyl)amino]-1,8-naphthyridin-2(1H)-one] | < 50 | < 100
11 | CCOC(=O)c1c(O)c2cc(-c3ccccc3OC)cnc2n(O)c1=O [Example 61, Ethyl 1,4-dihydroxy-6-(2-methoxyphenyl)-2-oxo-1,2-dihydro-1,8-naphthyridine-3-carboxylate] | < 50 | < 100
12 | CCOC(=O)c1c(O)c2cc(Br)cnc2n(O)c1=O [Example 3, Ethyl 6-bromo-1,4-dihydroxy-2-oxo-1,2-dihydro-1,8-naphthyridine-3-carboxylate] | < 50 | < 100
13 | O=c1cc(-c2cccc(CN3CCN(Cc4ccccc4)CC3)c2)c2cccnc2n1O [Example 206, 4-{3-[(4-benzyl-1-piperazinyl)methyl]phenyl}-1-hydroxy-1,8-naphthyridin-2(1H-one)] | < 50 | < 100
14 | Nc1ccc(-c2ccc3c(c2)CN(c2cc(=O)n(O)c4ncccc24)CC3)cc1 [Example 254, 4-[7-(4-aminophenyl)-3,4-dihydroisoquinolin-2(1H)-yl]-1-hydroxy-1,8-naphthyridin-2(1H)-one] | < 50 | < 100
15 | CCOC(=O)c1c(-c2cc(CCc3ccccc3F)cc(-c3ccc(CN)cc3)c2)c2cccnc2n(O)c1=O [Example 263, ethyl 4-[4′-aminomethyl-5-(2-fluorophenethyl)biphenyl-3-yl]1-hydroxy-2-oxo-1,2-dihydro-1,8-naphthyridine-3-carboxylate] | < 50 | < 100
16 | CCOC(=O)c1c(O)c2cc(C(=O)NCc3ccccc3OC)cnc2n(O)c1=O [Example 79, Ethyl 1,4-dihydroxy-6-{[2-methoxybenzyl)amino] carbonyl}-2-oxo-1,2-dihydro-1,8-naphthyridine-3-carboxylate] | < 50 | < 100
17 | CCOC(=O)c1c(O)c2c(Cc3cccc(-c4cccc(CN)c4)c3)ccnc2n(O)c1=O [Example 249, ethyl 5-{[3′-(aminomethyl)biphenyl-3-yl]methyl}-1,4-dihydroxy-2-oxo-1,2-dihydro-1,8-naphthyridine-3-carboxylate] | < 50 | < 100
18 | O=c1cc(N2CCC(N3CCOCC3)CC2)c2cccnc2n1O [Example 138, 1-hydroxy-4-[4-(4-morpholinyl)-1-piperidinyl]-1,8-naphthyridin-2(1H-one)] | < 50 | < 100
19 | O=c1cc(NCc2cccnc2)c2cccnc2n1O [Example 162, 1-hydroxy-4-[(3-pyrindinylmethyl)amino]-1,8-naphthyridin-2 (1H-one)] | < 50 | < 100

Row | SMILES | IC50 (HIV integrase) [µM] | IC50 (HXB2 virus) [µM]
20 | CCOC(=O)c1c(O)c2cc(C(=O)N3CCCCC3CCc3ccccc3)cnc2n(O)c1=O (centres unmarked) [Example 82, Ethyl 1,4-dihydroxy-2-oxo-6-{[2-(2-phenylethyl)piperidin-1-yl]carbonyl}-1,2-dihydro-1,8-naphthyridine-3-carboxylate] | < 50 | < 100
21 | CN1C(=O)c2c(c3cccnc3n(O)c2=O)NC1c1ccccc1 (centres unmarked) [Example 216, 6-Hydroxy-3-methyl-2-phenyl-2,3-dihydropyrimido[5,4-c]-1,8-naphthyridine-4,5(1H, 6H)-dione] | < 50 | < 100
22 | O=c1c(-c2ccccc2)c(O)c2cc(S(=O)(=O)Nc3ccccc3)cnc2n1O [Example 95, 5,8-Dihydroxy-7-oxo-N,6-diphenyl-7,8-dihydro-1,8-naphthyridine-3-sulfonamide] | < 50 | < 100
23 | O=c1cc(-c2ccccc2)c2cccnc2n1O [Example 171, 1-Hydroxy-4-phenyl-1,8-naphthyridin-2(H)-one] | < 50 | < 100
24 | Nc1cccc(-c2ccc3c(c2)CN(c2cc(=O)n(O)c4ncccc24)CC3)c1 [Example 251, 4-[7-(3-aminophenyl)-3,4-dihydroisoquinolin-2(1H)-yl]-1-hydroxy-1,8-naphthyridin-2(1H)-one] | < 50 | < 100
25 | O=c1cc(N[C@H]2CCN(Cc3ccccc3)C2)c2cccnc2n1O [Example 114, 4-{[(3S)-1-Benzylpyrrolidin-3-yl]amino}-1-hydroxy-1,8-naphthyridin-2(1H)-one] | < 50 | < 100
26 | O=c1cc(-c2cn[nH]c2)c2cccnc2n1O [Example 244, 1-Hydroxy-4-(pyrazol-4-yl)-1,8-naphthyridin-2-(1H)-one] | < 50 | < 100
27 | CC(=O)c1c(O)c2cccnc2n(O)c1=O [Example 93, 3-acetyl-1,4-dihydroxy-1,8-naphthyridin-2(1H)-one] | > 50 | < 100
28 | CS(=O)(=O)Nc1cccc(-c2cc(=O)n(O)c3ncccc23)c1 [Example 175, N-[3-(1-hydroxy-2-oxo-1,2-dihydro-1,8-naphthyridin-4-yl)phenyl]methanesulfo-namide] | < 50 | < 100
29 | CN(Cc1cccc(Cn2cncn2)c1)c1cc(=O)n(O)c2ncccc12 [Example 116] | < 50 | < 100
30 | O=C(NCc1ccc(F)cc1)c1c(O)c2cccnc2n(O)c1=O [Example 18, N-(4-Fluorobenzyl)-1,4-dihydroxy-2-oxo-1,2-dihydro-1,8-naphthyridine-3-carboxamide] | < 50 | < 100
31 | N#Cc1cccc(-c2cccc(-c3cc(=O)n(O)c4ncccc34)c2)c1 [Example 202, 3′-(1-hydroxy-2-oxo-1,2-dihydro-1,8-naphthyridin-4-yl)biphenyl-3-carbonitrile] | < 50 | < 100
32 | CN1C(=O)c2c(c3cccnc3n(O)c2=O)NC1c1ccccc1-c1ccccc1 (centres unmarked) [Example 217, 2-Biphenyl-2-yl-6-hydroxy-3-methyl-2,3-dihydropyrimido[5,4-c]-1,8-naphthyridine-4,5(1H, 6H)dione] | < 50 | < 100
33 | O=c1cc(-c2ccc(-c3ccn[nH]3)cc2)c2cccnc2n1O [Example 188, 1-hydroxy-4-[4-(1H-pyrazol-5-yl)phenyl]-1,8-naphthyridin-2(1H)-one] | < 50 | < 100
34 | O=c1cc(-c2cncnc2)c2cccnc2n1O [Example 197, 1-hydroxy-4-pyrimidin-5-yl-1,8-naphthyridin-2(1H)-one] | < 50 | < 100
35 | O=c1cc(N[C@@H]2CCN(Cc3ccccc3)C2)c2cccnc2n1O [Example 113, 4-{[(3R)-1-Benzylpyrrolidin-3-yl]amino}-1-hydroxy-1,8-naphthyridin-2(1H)-one] | < 50 | < 100
36 | O=c1c2ccccc2c2cccnc2n1O [Example 265, 5-Hydroxybenzo[c]-1,8-naphthyridin-6(5B)-one] | < 50 | < 100
37 | CC(c1ccc(-c2cccc(-c3cc(=O)n(O)c4ncccc34)c2)cc1)N1CCOCC1 (centres unmarked) [Example 178, 1-hydroxy-4-[4′-(1-morpholin-4-ylethyl)biphenyl-3-yl]-1,8-naphthyridin-2(1H)-one] | < 50 | < 100

— patent publication US20100056516A1 (priority 2006, published 2010)
